# Where a name gives a salt, the structure may show the parent alone. Bridge positions count the residues as written; N and C are the ends. Square brackets hold non-standard residues; d marks the D form. Peptide text beside a SMILES is read from it. hArg = N=C(N)NCCCC[C@H](N)C(=O)O; Mpa = O=C(O)CCS
# Tested on: PRKACA-PRKAR2A interaction (SmBiT-PRKACA / LgBiT-PRKAR2A), protein kinase A
# Design: NanoLuc complementation counter-screen in cell extract, PRKACA with PRKAR2A, loss of luminescence, detects NanoLuc interference
# Details: counter-screen for NanoLuc interference, 0.5 h, 20 µM, inhibitor, Inh (PKA)
row,SMILES,Inh (PKA)
1,"O=C(Cc1ccc(-c2ccc(OCCN3CCOCC3)cc2)cn1)NCc1ccccc1 [UM0142472:01, KX2-391]",3.767%
2,"COc1cc(Nc2ncc(F)c(Nc3ccc4c(n3)N(COP(=O)(O)O)C(=O)C(C)(C)O4)n2)cc(OC)c1OC [UM0142473:01, Fostamatinib (R788)]",53.12%
3,"Cc1cccc(-c2[nH]c(C(C)(C)C)nc2-c2ccc3c(c2)OCO3)n1 [UM0142475:01, SB505124]",12.17%
4,"CCOC(=O)[C@H](C)C[C@@H](Cc1ccc(-c2ccccc2)cc1)NC(=O)CCC(=O)O [UM0142501:01, AHU-377 hemicalcium salt]",0.8137%
5,"O=C(c1ccccc1)c1ccc2n1CCC2C(=O)O (stereo not drawn) [UM0142511:01, Ketorolac]",0.7443%
6,"O=C(O)Cc1ccccc1Nc1c(Cl)cccc1Cl [UM0142522:01, Diclofenac]",9.074%

# Same assay, conditions: counter-screen for NanoLuc interference; 0.5 h, 20 µM; inhibitor
row,SMILES,Inh (PKA)
1,"CCOC(=O)C1=C[C@]2(CC)CCCN3CCc4c(n1c1ccccc41)[C@@H]32 [UM0142468:01, Vinpocetine]",12.65%
2,"COc1cc(NC(=O)c2ccc(-c3ccc(Cl)cc3)o2)cc(OC)c1 [UM0142469:01, A-803467]",40.39%
3,"CCCCCCCN(CC)CCCC(O)c1ccc(NS(C)(=O)=O)cc1 (stereo not drawn) [UM0142470:01, Ibutilide Fumarate]",0.4733%
4,"COc1cc(-c2cc(-c3cccc(O)c3)cnc2N)cc(OC)c1OC [UM0142474:01, K02288]",26.47%
5,"COc1cccc2c1C(=O)c1c(O)c3c(c(O)c1C2=O)C[C@@](O)(C(=O)CO)C[C@@H]3O[C@H]1C[C@H](N)[C@H](O[C@@H]2CCCCO2)[C@H](C)O1 [UM0142479:01, Pirarubicin]",33.32%
6,"CC[C@@]1(O)C(=O)OCc2c1cc1n(c2=O)Cc2cc3c(CN(C)C)c(O)ccc3nc2-1 [UM0142480:01, Topotecan HCl]",19.17%
7,"CCn1c(N)c(C(=O)NC)c(=O)c2ccc(C#C[C@@](C)(O)COC)nc21 [UM0142483:01, SAR131675]",0.3639%
8,"O=C(CSc1nc2c(c(=O)n1-c1ccccc1)SCC2)Nc1ccc(-c2ccccc2)cn1 [UM0142486:01, IWP-L6]",23.47%
9,"Cc1cc(-c2ncc(CC(=O)Nc3ccc(-c4cnccn4)cn3)cc2C)ccn1 [UM0142488:01, LGK-974]",0.7443%
10,"O=C(O)c1cc2cccc([N+](=O)[O-])c2[nH]1 [UM0142492:01, CRT0044876]",5.384%
11,"NC(=S)N/N=C/c1ncccc1N [UM0142496:01, Triapine]",0.417%
12,"CCCN1CCN(c2ccc(C(=O)NC3(C(=O)NCC#N)CCCCC3)cc2)CC1 [UM0142500:01, Balicatib]",-0.9688%
13,"CCC(Sc1nnc2c(n1)[nH]c1ccccc12)C(=O)N1c2ccccc2Sc2ccccc21 (stereo not drawn) [UM0142503:01, Inauhzin]",40.51%
14,"CCCCCCCc1ccc(CCc2cccc(O)c2C(=O)O)cc1 [UM0142505:01, MG 149]",11.49%
15,"CC(C)NCC(O)c1ccc(NS(C)(=O)=O)cc1 (stereo not drawn) [UM0142510:01, Sotalol hydrochloride]",-0.9356%
16,"COCCCOc1ccnc(C[S+]([O-])c2nc3ccccc3[nH]2)c1C (stereo not drawn) [UM0142515:01, Rabeprazole]",0.62%
17,"C#C[C@]1(O)CC[C@H]2[C@@H]3CCC4=CC(=O)CC[C@@H]4[C@H]3C(=C)C[C@@]21CC [UM0142516:01, Etonogestrel]",8.15%
18,"CC(C)C(=O)OCC(=O)[C@@]12O[C@H](C3CCCCC3)O[C@@H]1C[C@H]1[C@@H]3CCC4=CC(=O)C=C[C@]4(C)[C@H]3[C@@H](O)C[C@@]12C [UM0142517:01, Ciclesonide]",3.161%
19,"CC(=O)O[C@H]1Cc2ccccc2N(C(N)=O)c2ccccc21 [UM0142518:01, Eslicarbazepine acetate]",-0.7534%
20,"N=C(N)NCCCC[C@@H]1NC(=O)CCSSC[C@@H](C(N)=O)NC(=O)[C@@H]2CCCN2C(=O)[C@H](Cc2c[nH]c3ccccc23)NC(=O)[C@H](CC(=O)O)NC(=O)CNC1=O [UM0142520:01, Eptifibatide] ([Mpa][hArg]GDWPC-NH2; disulfide 1-7)",-0.06094%

row,SMILES,Inh (PKA)
1,"COc1cccc(CCc2ccccc2OCC(CN(C)C)OC(=O)CCC(=O)O)c1 (stereo not drawn) [UM0142521:01, Sarpogrelate hydrochloride]",4.065%
2,"O=C1CCCC(=O)C1C(=O)c1ccc(C(F)(F)F)cc1[N+](=O)[O-] [UM0142524:01, Nitisinone]",2.396%
3,"CC(=O)Nc1ccc(O)cc1 [UM0142525:01, Acetaminophen]",-0.5181%
4,"O=C(O)c1ccc(N2C(=O)/C(=C\c3ccc(-c4ccc([N+](=O)[O-])cc4)o3)C=C2c2ccccc2)cc1 [UM0142546:01, 4E1RCat]",43.25%
5,"O=C(COc1ccc(Cl)cc1)N[C@H]1CC[C@H](NC(=O)COc2ccc(Cl)cc2)CC1 [UM0142547:01, ISRIB (trans-isomer)]",0.7821%
6,"CCCCN(Cc1ccc(C(=O)NO)cc1)C(=O)Nc1ccccc1 [UM0142549:01, Nexturastat A]",2.476%
7,"Cc1ccc(CNc2ncnc3ccc(-c4ccc(CO)o4)cc23)o1 [UM0142550:01, ML167]",10.94%
8,"CC(C)[C@H](N)C(=O)N1CCC[C@H]1B(O)O [UM0142552:01, Talabostat mesylate]",-1.148%
9,"CN1CCN(c2ccc(OC(F)(F)F)c(Nc3ncc4c(n3)-c3c(c(C(N)=O)nn3CCO)CC4)c2)CC1 [UM0142553:01, NMS-1286937]",23.22%
10,"Cc1c(F)cc(C(=O)NC2CC2)cc1-c1ccc(C(=O)NCC(C)(C)C)cn1 [UM0142557:01, Losmapimod]",0.7266%
11,"Cc1ccc2nc(NCCN)c3ncc(C)n3c2c1 [UM0142559:01, BMS-345541(free base)]",1.467%
12,"O=C(NCc1cccc(O)c1)c1cc2cc(F)ccc2[nH]1 [UM0142568:01, KX1-004]",5.75%
13,"CN(C)c1cccc(-c2c3c(=O)n(-c4ccccc4Cl)[nH]c3cc(=O)n2C)c1 [UM0142578:01, GKT137831]",41.79%
14,"CN(CC(=O)N(Cc1ccc(C2CCCCC2)cc1)c1ccc(C(=O)O)cc1)S(=O)(=O)c1c(F)c(F)c(F)c(F)c1F [UM0142580:01, SH-4-54]",8.361%
15,"O=S(=O)(CC1CS1)c1ccc(Oc2ccccc2)cc1 (stereo not drawn) [UM0142583:01, SB-3CT]",17.13%
16,"CN(C)CCCNC(=O)c1ccc(-c2cc(O)c3ncccc3c2)cc1 [UM0142607:01, ML324]",3.619%
17,"N=C1NC(=O)/C(=C/c2ccc(O)cc2)S1 [UM0142634:01, Mirin]",13.24%
18,"CC(=O)O/N=C1/C(c2c(O)[nH]c3cc(Br)ccc23)=Nc2ccccc21 [UM0142638:01, BIO-acetoxime]",40.08%
19,"O=S(=O)(N=Cc1c(O)ccc2ccccc12)c1cccs1 [UM0142640:01, STF 083010]",10.66%

# From PMC9995496, “A screen for MeCP2-TBL1 interaction inhibitors using a luminescence-based assay” (Scientific Reports, 2023)
